Patent US12281125B2, “Rapamycin derivatives” (NOVARTIS AG, priority 2018, dated 2025)

Assays:
[1] = system: mTORc1 signaling, pS6 (Ser240/244) in MEF TSCl−/− cells; experiment: Cell-based assay for rapalog potency (pS6) in MEF TSCl−/− cells; settings: Mus musculus, 2 hours treatment, average from multiple assays
Protocol: Rapalog potency was determined using MEF TSCl−/− cell based assay. MEF TSCl−/− cells are Mouse Embryonic Fibroblasts deficient in Tuberous sclerosis protein—TSCl, which negatively regulates mTORc1 signaling and thus display constitutive mTORc1 activation, resulting in phosphorylation (activation) of downstream molecules. This cell-based assay is used to measure inhibition (de-phosphorylation) of S6 and 4EBP1 by rapalogs or other mTOR inhibitors.
MEF TSCl−/− cells were plated on Poly-D-lysine coated 384 well Griener clear bottom plates and incubated overnight at 37° C., 5% CO2. On the following day, cells were washed 8 times with “Hard starve” solution (1 L DPBS+1 g D-(+) glucose+10 ml of 7.5% Sodium Bicarbonate+20 ml of 1M HEPES) and incubated for further 2 hours in the same solution. Cells were next treated with compounds with decreasing concentrations (8 points at 3.16 fold dilutions) and incubated for 2 hours at 37° C., 5% CO2. Cells were fixed with 4% paraformaldehyde for 30 min and washed 5 times with TBS-EDTA followed by immuno-staining with fluorescent tag labeled antibodies for pS6 (Ser240/244) (Cell Signaling #9468) and p4EBP1 (Thr 37/46) (Cell Signaling #5123). Nuclei were visualized with Hoechst (ThermoFisher Scientific #H3570) staining. Cells were imaged (InCell 600) using respective fluorescence channels and the potency of mTOR inhibitors was defined by pS6 IC50 (nM).
In vitro potency of mTOR inhibitors was defined by pS6 IC50 (nM) in MEF TSCl−/− cells.
IC50 values are calculated as the average from multiple assays.

FKBP12 = molecular target: T1, FKBP12 (Homo sapiens, UniProt P62942); experiment: SPR assay, binding affinity to FKBP12; settings: equilibrium dissociation constant
T1 construct: made in house; host or cells: E. coli
T1 sequence (P62942 whole entry): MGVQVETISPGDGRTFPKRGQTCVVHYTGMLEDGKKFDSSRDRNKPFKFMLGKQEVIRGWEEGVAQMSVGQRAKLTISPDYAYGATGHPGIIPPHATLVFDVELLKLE
From the text: (§1) N-terminal avi-his6-tagged FKBP fusion proteins were expressed in E. coli and purified with nickel chromatography using standard procedures. Biotinylated his-avi-FKBPs were immobilized on a streptavidin chip using a Biacore 8K (GE Healthcare). […] The single-cycle kinetics data were fit to a 1:1 binding model to measure the association rate ka (1/Ms), the dissociation rate kd (1/s) and the affinity KD (M). […] The single-cycle kinetics data was fit to a 1:1 binding model to measure the association rate ka (1/Ms), the dissociation rate kd (1/s) and the apparent affinity KD (M) for ternary complex formation. The equilibrium dissociation constants (KD) to FKBP12, FKBP51, and FKBP52 are shown below in Table 6.

FKBP51 = molecular target: T2, FKBP51 (Homo sapiens, UniProt Q13451); experiment: SPR assay, binding affinity to FKBP51; settings: equilibrium dissociation constant
T2 construct: made in house; host or cells: E. coli
T2 sequence (Q13451 1-457): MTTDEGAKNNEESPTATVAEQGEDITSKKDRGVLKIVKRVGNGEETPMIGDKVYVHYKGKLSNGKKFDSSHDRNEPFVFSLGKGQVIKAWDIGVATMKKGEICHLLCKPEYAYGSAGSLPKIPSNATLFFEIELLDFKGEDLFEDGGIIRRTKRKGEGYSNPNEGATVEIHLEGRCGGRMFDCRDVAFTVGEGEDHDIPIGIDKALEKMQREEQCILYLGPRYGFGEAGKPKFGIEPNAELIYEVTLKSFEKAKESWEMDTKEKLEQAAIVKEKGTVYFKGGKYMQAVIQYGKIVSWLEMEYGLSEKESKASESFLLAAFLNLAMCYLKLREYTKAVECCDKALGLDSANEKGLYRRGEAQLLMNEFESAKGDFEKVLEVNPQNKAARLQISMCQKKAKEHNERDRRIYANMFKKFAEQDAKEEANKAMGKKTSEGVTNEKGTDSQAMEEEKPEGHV
From the text: as §1

FKBP52 = molecular target: T3, FKBP52 (Homo sapiens, UniProt Q02790); experiment: SPR assay, binding affinity to FKBP52; settings: equilibrium dissociation constant
T3 construct: made in house; host or cells: E. coli
T3 sequence (Q02790 1-459): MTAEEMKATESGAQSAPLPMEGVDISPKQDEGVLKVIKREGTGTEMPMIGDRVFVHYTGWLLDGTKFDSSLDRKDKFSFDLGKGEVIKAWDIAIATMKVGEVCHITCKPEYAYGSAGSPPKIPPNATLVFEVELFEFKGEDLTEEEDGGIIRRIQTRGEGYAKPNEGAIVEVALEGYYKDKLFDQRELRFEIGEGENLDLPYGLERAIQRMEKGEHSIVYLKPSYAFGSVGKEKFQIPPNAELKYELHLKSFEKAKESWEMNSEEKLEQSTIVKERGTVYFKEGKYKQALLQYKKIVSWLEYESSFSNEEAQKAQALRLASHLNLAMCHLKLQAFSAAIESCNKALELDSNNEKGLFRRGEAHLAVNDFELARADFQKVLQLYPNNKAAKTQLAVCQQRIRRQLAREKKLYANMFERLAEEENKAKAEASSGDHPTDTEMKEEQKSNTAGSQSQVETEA
Protocol: N-terminal avi-his6-tagged FKBP fusion proteins were expressed in E. coli and purified with nickel chromatography using standard procedures. Biotinylated his-avi-FKBPs were immobilized on a streptavidin chip using a Biacore 8K (GE Healthcare). To determine the kinetics-affinity of the rapalogs for FKBPs, rapalogs were diluted in DMSO to 50× working concentration. Next, 3.1 uLs of each rapalog solution was added to 150 uLs of buffer (50 mM Tris pH 7.5/150 mM NaCl/0.01% Tween 20/1 mM DTT) in a 384 deep well plate (greiner bio-one/78127) and mixed using a Biomek FX. The rapalog solution gradients (6 concentrations/2 fold dilutions, 3.1-100 nM or 31-1000 nM or 310-10000 nM) were then injected at 45 uL/min for 120 seconds: contact time and dissociation time was 1800 seconds in running buffer (50 mM Tris pH 7.5/150 mM NaCl/0.01% Tween 20/1 mM DTT/2% DMSO). The single-cycle kinetics data were fit to a 1:1 binding model to measure the association rate ka (1/Ms), the dissociation rate kd (1/s) and the affinity KD (M). […] 3.1 uLs of the 500 μM rapalog solutions were added to 150 uLs of the mTOR samples in a 384 deep well plate (greiner bio-one/78127) and mixed using a Biomek FX. The mTOR solution gradients were then injected at 45 uL/min for 120 seconds: contact time and dissociation time was 1800 seconds in running buffer (50 mM Tris pH 7.5/150 mM NaCl/0.01% Tween 20/1 mM DTT/2% DMSO). The single-cycle kinetics data was fit to a 1:1 binding model to measure the association rate ka (1/Ms), the dissociation rate kd (1/s) and the apparent affinity KD (M) for ternary complex formation.
The equilibrium dissociation constants (KD) to FKBP12, FKBP51, and FKBP52 are shown below in Table 6.

Structure (SMILES) | IC50 [1] [nM] | Kd (FKBP12) [nM] | Kd (FKBP51) [nM] | Kd (FKBP52) [nM]
CO[C@@H]1C[C@H](C[C@@H](C)[C@@H]2CC[C@H](C)/C=C(\C)[C@@H](O)[C@@H](OC)C(=O)[C@H](C)C[C@H](C)/C=C/C=C/C=C(\C)C(N(C)S(C)(=O)=O)C[C@@H]3CC[C@@H](C)[C@@](O)(O3)C(=O)C(=O)N3CCCC[C@H]3C(=O)O2)CC[C@H]1O (single isomer, unassigned) [Compound 42] | 0.3 | 6.5 | 1230 | 1380
CO[C@@H]1C[C@H](C[C@@H](C)[C@@H]2CC[C@H](C)/C=C(\C)[C@@H](O)[C@@H](OC)C(=O)[C@H](C)C[C@H](C)/C=C/C=C/C=C(\C)[C@H](NS(C)(=O)=O)C[C@@H]3CC[C@@H](C)[C@@](O)(O3)C(=O)C(=O)N3CCCC[C@H]3C(=O)O2)CC[C@H]1O [Compound 1] | 0.55 | 0.061 | 11 | 9.8
CCS(=O)(=O)N[C@H]1C[C@@H]2CC[C@@H](C)[C@@](O)(O2)C(=O)C(=O)N2CCCC[C@H]2C(=O)O[C@H]([C@H](C)C[C@@H]2CC[C@@H](O)[C@H](OC)C2)CC[C@H](C)/C=C(\C)[C@@H](O)[C@@H](OC)C(=O)[C@H](C)C[C@H](C)/C=C/C=C/C=C/1C [Compound 3] | 0.26 | 0.2 | 40 | 61
CCS(=O)(=O)N[C@@H]1C[C@@H]2CC[C@@H](C)[C@@](O)(O2)C(=O)C(=O)N2CCCC[C@H]2C(=O)O[C@H]([C@H](C)C[C@@H]2CC[C@@H](O)[C@H](OC)C2)CC[C@H](C)/C=C(\C)[C@@H](O)[C@@H](OC)C(=O)[C@H](C)C[C@H](C)/C=C/C=C/C=C/1C [Compound 4] | 1.2 | 0.55 | 315 | 256
CO[C@@H]1C[C@H](C[C@@H](C)[C@@H]2CC[C@H](C)/C=C(\C)[C@@H](O)[C@@H](OC)C(=O)[C@H](C)C[C@H](C)/C=C/C=C/C=C(\C)[C@@H](NS(=O)(=O)C3CC3)C[C@@H]3CC[C@@H](C)[C@@](O)(O3)C(=O)C(=O)N3CCCC[C@H]3C(=O)O2)CC[C@H]1O [Compound 11] | 0.94 | 0.29 | 45 | 63
CO[C@@H]1C[C@H](C[C@@H](C)[C@@H]2CC[C@H](C)/C=C(\C)[C@@H](O)[C@@H](OC)C(=O)[C@H](C)C[C@H](C)/C=C/C=C/C=C(\C)[C@H](NS(=O)(=O)C3CC3)C[C@@H]3CC[C@@H](C)[C@@](O)(O3)C(=O)C(=O)N3CCCC[C@H]3C(=O)O2)CC[C@H]1O [Compound 12] | 1.1 | 0.39 | 117 | 135
CO[C@@H]1C[C@H](C[C@@H](C)[C@@H]2CC[C@H](C)/C=C(\C)[C@@H](O)[C@@H](OC)C(=O)[C@H](C)C[C@H](C)/C=C/C=C/C=C(\C)[C@H](NS(=O)(=O)CCCCl)C[C@@H]3CC[C@@H](C)[C@@](O)(O3)C(=O)C(=O)N3CCCC[C@H]3C(=O)O2)CC[C@H]1O [Compound 18] | 6.6 | 0.73 | 573 | 436
CO[C@@H]1C[C@H](C[C@@H](C)[C@@H]2CC[C@H](C)/C=C(\C)[C@@H](O)[C@@H](OC)C(=O)[C@H](C)C[C@H](C)/C=C/C=C/C=C(\C)[C@@H](NS(C)(=O)=O)C[C@@H]3CC[C@@H](C)[C@@](O)(O3)C(=O)C(=O)N3CCCC[C@H]3C(=O)O2)CC[C@H]1OP(C)(C)=O [Compound 24] | 0.52 | 0.54 | 25 | 90
CO[C@@H]1C[C@H](C[C@@H](C)[C@@H]2CC[C@H](C)/C=C(\C)[C@@H](O)[C@@H](OC)C(=O)[C@H](C)C[C@H](C)/C=C/C=C/C=C(\C)[C@@H](NS(C)(=O)=O)C[C@@H]3CC[C@@H](C)[C@@](O)(O3)C(=O)C(=O)N3CCCC[C@H]3C(=O)O2)CC[C@H]1OCCO [Compound 26] | 0.086 | 0.83 | 47 | 80
